Literature values in patent US20150230971A1, “MULTIPURPOSE DRUG DELIVERY SYSTEMS FOR LONG-TERM IMPLANTATION OR INSERTION” (PAT&CO BVBA, priority 2012, published 2015).

Tested on: rats and mice
Details: carcinomas and/or precursor lesions of oral cavity, lips, tongue, esophagus, forestomach

Compound: C=COC(C)=O [VAM, vinyl acetate monomer]
- carcinogenicity: increase in total malignant tumors
